System: MDA-MB-468 spheroids with HUVEC/MSC, viability
Assay: Anticancer human tumor MDA-MB-468 cell line growth inhibition [PI3K];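 note: spheroids exposed to agents for seven days before readout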;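 for viability, T/C: 100% = DMSO vehicle control viability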
Settings: for IC50: curve of first compound; for viability, T/C: stronger effect = lower value; active = viability on the fitted dose curve at most 10% of control; inactive = the rest
In short: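 High-throughput combination screen: PI3K inhibitors crossed with targeted small molecules on complex spheroids of tumor cells, HUVEC and MSCs at 37 degrees C, 5% CO2. Top concentration was at or near clinical Cmax (otherwise 10 microM), with half-log decrements.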

[1] = second compound 0.00316 µM, first compound 0.0316 µM
[2] = second compound 0.00316 µM, first compound 0.1 µM
[3] = second compound 0.00316 µM, first compound 0.316 µM
[4] = second compound 0.00316 µM, first compound 1 µM
[5] = second compound 0.01 µM, first compound 0.0316 µM
[6] = second compound 0.01 µM, first compound 0.1 µM
[7] = second compound 0.01 µM, first compound 0.316 µM
[8] = second compound 0.01 µM, first compound 1 µM
[9] = second compound 0.0316 µM, first compound 0.0316 µM
[10] = second compound 0.0316 µM, first compound 0.1 µM
[11] = second compound 0.0316 µM, first compound 0.316 µM
[12] = second compound 0.0316 µM, first compound 1 µM
[13] = second compound 0.1 µM, first compound 0.0316 µM
[14] = second compound 0.1 µM, first compound 0.1 µM
[15] = second compound 0.1 µM, first compound 0.316 µM
[16] = second compound 0.1 µM, first compound 1 µM
[17] = second compound 0.316 µM, first compound 0.0316 µM
[18] = second compound 0.316 µM, first compound 0.1 µM
[19] = second compound 0.316 µM, first compound 0.316 µM
[20] = second compound 0.316 µM, first compound 1 µM
[21] = second compound 1 µM, first compound 0.0316 µM
[22] = second compound 1 µM, first compound 0.1 µM
[23] = second compound 1 µM, first compound 0.316 µM
[24] = second compound 1 µM, first compound 1 µM

CC(C)NCC(C(=O)N1CCN(c2ncnc3c2C(C)CC3O)CC1)c1ccc(Cl)cc1 (centres undefined) + COc1c(OCCCN2CCOCC2)ccc2c3n(c(=NC(=O)c4cnc(N)nc4)nc12)CCN3
711 nM: IC50 (second compound 0.0316 µM)
inactive: viability, T/C [1] 89.4% | viability, T/C [2] 79.2% | viability, T/C [3] 70.6% | viability, T/C [4] 47.7% | viability, T/C (second compound 0.00316 µM, first compound 3.16 µM) 31.4% | viability, T/C (second compound 0.00316 µM, first compound 10 µM) 24.2% | viability, T/C [5] 83.2% | viability, T/C [6] 81.3% | viability, T/C [7] 65.4% | viability, T/C [8] 44.5% | viability, T/C (second compound 0.01 µM, first compound 3.16 µM) 31.7% | viability, T/C (second compound 0.01 µM, first compound 10 µM) 23.6% | viability, T/C [9] 76.3% | viability, T/C [10] 68.5% | viability, T/C [11] 66.4% | viability, T/C [12] 42.3% | viability, T/C (second compound 0.0316 µM, first compound 3.16 µM) 28.9% | viability, T/C (second compound 0.0316 µM, first compound 10 µM) 20.2% | viability, T/C [13] 57.4% | viability, T/C [14] 55.2% | viability, T/C [15] 49.1% | viability, T/C [16] 34.7% | viability, T/C (second compound 0.1 µM, first compound 3.16 µM) 27.1% | viability, T/C (second compound 0.1 µM, first compound 10 µM) 14.7% | viability, T/C [17] 27.1% | viability, T/C [18] 27% | viability, T/C [19] 24.5% | viability, T/C [20] 21.2% | viability, T/C (second compound 0.316 µM, first compound 3.16 µM) 15.1% | viability, T/C (second compound 0.316 µM, first compound 10 µM) 9.47%
762 nM: IC50 (second compound 0.01 µM)
219 nM: IC50 (second compound 0.1 µM)
< 31.6 nM: IC50 (second compound 0.316 µM) | IC50 (second compound 1 µM)
910 nM: IC50 (second compound 0.00316 µM)
active: viability, T/C [21] 4.25% | viability, T/C [22] 3.87% | viability, T/C [23] 2.81% | viability, T/C [24] 3.58% | viability, T/C (second compound 1 µM, first compound 3.16 µM) 3.71% | viability, T/C (second compound 1 µM, first compound 10 µM) 2.69%

CCN1CCN(Cc2ccc(Nc3ncc(F)c(-c4cc(F)c5nc(C)n(C(C)C)c5c4)n3)nc2)CC1 + COc1c(OCCCN2CCOCC2)ccc2c3n(c(=NC(=O)c4cnc(N)nc4)nc12)CCN3
active: viability, T/C (second compound 1 µM, first compound 0.00316 µM) 4.09% | viability, T/C (second compound 1 µM, first compound 0.01 µM) 4.14% | viability, T/C [21] 2.96% | viability, T/C [22] 4.33% | viability, T/C [23] 6.64% | viability, T/C [24] 9.9%
< 3.16 nM: IC50 (second compound 0.316 µM) | IC50 (second compound 1 µM)
inactive: viability, T/C (second compound 0.00316 µM, first compound 0.00316 µM) 96.9% | viability, T/C (second compound 0.00316 µM, first compound 0.01 µM) 90.8% | viability, T/C [1] 88.2% | viability, T/C [2] 96.8% | viability, T/C [3] 99.5% | viability, T/C [4] 69.9% | viability, T/C (second compound 0.01 µM, first compound 0.00316 µM) 85.3% | viability, T/C (second compound 0.01 µM, first compound 0.01 µM) 88.8% | viability, T/C [5] 82% | viability, T/C [6] 88.8% | viability, T/C [7] 84.2% | viability, T/C [8] 54.4% | viability, T/C (second compound 0.0316 µM, first compound 0.00316 µM) 77% | viability, T/C (second compound 0.0316 µM, first compound 0.01 µM) 72.2% | viability, T/C [9] 77.5% | viability, T/C [10] 73.6% | viability, T/C [11] 81.4% | viability, T/C [12] 66.1% | viability, T/C (second compound 0.1 µM, first compound 0.00316 µM) 56.6% | viability, T/C (second compound 0.1 µM, first compound 0.01 µM) 72.4% | viability, T/C [13] 61.9% | viability, T/C [14] 59% | viability, T/C [15] 64% | viability, T/C [16] 40.3% | viability, T/C (second compound 0.316 µM, first compound 0.00316 µM) 26.9% | viability, T/C (second compound 0.316 µM, first compound 0.01 µM) 25.1% | viability, T/C [17] 28.1% | viability, T/C [18] 29.9% | viability, T/C [19] 31.7% | viability, T/C [20] 24.4%
> 1000 nM: IC50 (second compound 0.00316 µM) | IC50 (second compound 0.01 µM) | IC50 (second compound 0.0316 µM) | IC50 (second compound 0.1 µM)
